Test results as given in paper PMC9879403, “Oncolytic strategy using new bifunctional HDACs/BRD4 inhibitors against virus-associated lymphomas” (PLOS Pathogens, 2023).

Experiments:
[1] = WST-1 cytotoxicity assay, BJAB (KSHV negative lymphoma); format: cell-based; conditions: human
Excerpt: (§1) Fig 2 Identification of newly synthesized dual inhibitors with anti-PEL activities. (A) The binding mode of (+)-JQ1 with BRD4^BD1 (PDB: 3MXF). BRD4^BD1 is shown as hot pink cartoon with gray surface. Asn140 in BRD4^BD1 is shown as sticks and colored in following pattern: atom C hot pink, atom N dark blue, and atom O yellow. (+)-JQ1 is shown as sticks and colored in following patten: atom C hot pink, atom N dark blue, atom O yellow, atom S golden, and atom Cl green. The solvent exposed region (SEG) of (+)-JQ1 are indicated with white arrow. (B) The binding modes of SAHA and entinostat with HDAC2 (PDB: 3MAX). HDAC2 is shown as blue cartoon with gray surface. Asp181 and His183 in HDAC2 are shown as sticks and colored in following pattern: atom C blue, atom N dark blue, and atom O yellow. The catalytic zinc ion in the active site of HDAC2 is shown as black sphere. SAHA is shown as sticks and colored in following pattern: atom C green, atom N dark blue, and atom O yellow. Entinostat is shown as sticks and colored in following pattern: atom C hot pink, atom N dark blue, and atom O yellow. The SEG of SAHA or entinostat is indicated with white arrow. Hydrogen bonds (H-bonds) are presented by red dash lines. (C) The HDACs/BRD4 dual inhibitors 002-011 were designed by fusing the key pharmacophores of (+)-JQ1 (pink) and HDAC inhibitors (blue), SAHA or entinostat, via various chemical linkers (green). (D) Anti-PEL activities of the new compounds. Five KSHV positive and two KSHV negative lymphoma cell lines were treated with indicated concentrations of these compounds for 72 h. Then the cytotoxicity was determined using the WST-1 assay. (+)-JQ1, SAHA and entinostat were used for the comparisons as single inhibitors. The CC50 for each compound was calculated using GraphPad Prism 5.0 software. Error bars represent S.D. for 3 independent experiments.
(§2) The cell viability following treatment with compounds was assessed by the WST-1 assay (Roche, Indianapolis, Indiana, USA) according to the manufacturer’s protocol as described previously. The absorbance signal was measured using a microplate reader (Biotek Synergy 2). The 50% cytotoxic concentration (CC50) for each compound was calculated from these dose-response curves using the software GraphPad Prism v5.0. Data were normalized as the fold change compared to the DMSO control.

BJAB.219 = assay: WST-1 cytotoxicity assay, BJAB.219 (KSHV-infected lymphoma); format: cell-based; conditions: 72 h, read-out: KSHV-infected lymphomas CC50, BJAB.219
Excerpt: as §1
BCBL-1 and iSLK.219 cells were kindly provided by Dr. Pinghui Feng (University of Southern California). BL-41, BJAB, BCP-1, BC-1, BC-3, JSC-1, HUVEC cells were purchased from American Type Culture Collection (ATCC), and cultured as recommended by the manufacturer. For making BJAB.219 cells, BJAB cells were infected with rKSHV.219 stock by spinoculation as previously reported by centrifugation at 1500×g for 60 min [31]. Then, puromycin (10 μg/ml) was added into the medium at 72 h post-infection and the medium containing puromycin was replaced twice a week. After 6-week high concentration of puromycin selection, BJAB.219 cells were then cultured in the medium with 0.5 μg/ml puromycin.
The cell viability following treatment with compounds was assessed by the WST-1 assay (Roche, Indianapolis, Indiana, USA) according to the manufacturer’s protocol as described previously. The absorbance signal was measured using a microplate reader (Biotek Synergy 2). […]

KSHV = format: cell-based, human
[2] = WST-1 cytotoxicity assay, BL-41 (KSHV negative lymphoma); format: cell-based; conditions: human
Excerpt: as §1, §2

JSC-1 = assay: WST-1 cytotoxicity assay, JSC-1 (KSHV+ PEL); format: cell-based; conditions: 72 h, read-out: KSHV-infected lymphomas CC50, JSC-1
Excerpt: as §1
(§3) Fig 4 Identification of anti-PEL activities for compound 009 stereoisomers. (A) The chemical structures of anti-HDACs/BRD4 bifunctional molecules 009P1 and 009P2, as well as anti-HDACs or anti-BRD4 mono-functional molecules 009N1, 009N2, 009N3, and 009N4. (B-C) Four KSHV+ PEL cell lines were treated with indicated concentrations of 009P1, 009P2 or 009N1-N4 for 72 h, then the cytotoxicity was determined using the WST-1 assay. (D-I) BCBL-1 cells were treated with these compounds at the respective 2× CC50 for 24 h, then cell cycle (D-F) and apoptosis (G-I) were measured by flow cytometry analysis. Error bars represent S.D. for 3 independent experiments, ** = p<0.01 (vs vehicle control).
as §2

BC-1 = assay: WST-1 cytotoxicity assay, BC-1 (KSHV+ PEL); format: cell-based; conditions: Homo sapiens, BC1, 72 h, read-out: KSHV-infected lymphomas CC50, BC-1
Excerpt: as §1, §3, §2

BCBL-1 = assay: WST-1 cytotoxicity assay, BCBL-1 (KSHV+ PEL); format: cell-based; conditions: BCBL1, 72 h, read-out: KSHV-infected lymphomas CC50, BCBL-1
Excerpt: as §1, §3, §2

BCP-1 = assay: WST-1 cytotoxicity assay, BCP-1 (KSHV+ PEL); format: cell-based; conditions: BCP-1, 72 h, read-out: KSHV-infected lymphomas CC50, BCP-1
Excerpt: as §1, §3, §2

## Cc1sc2c(c1C)C(c1ccc(Cl)cc1)=N[C@@H](CC(=O)OC(C)c1ccc(C(=O)Nc3ccccc3N)cc1)c1nnc(C)n1-2 (stereo partly drawn) [compound 009, 1-(4-((2-aminophenyl)carbamoyl)phenyl)ethyl 2-((S)-4-(4-chlorophenyl)-2,3,9-trimethyl-6H-thieno[3,2-f][1,2,4]triazolo[4,3-a][1,4]diazepin-6-yl)acetate]
[1]
  CC50 at 72 h: 1320 nM
BJAB.219
  CC50: 230 nM
KSHV
  Expression of lytic genes RTA, PF and ORF26: elevated
[2]
  CC50 at 72 h: 3370 nM
JSC-1
  CC50: 84 nM
BC-1
  CC50: 96 nM
BCBL-1
  CC50: 20 nM
BCP-1
  CC50: 120 nM
